Measured values from ChEMBL document CHEMBL1201862, “PubChem BioAssay data set” (2004).
Activity calls are given as the source filed them. Rule as the data show it, for most assays here: actives have a measured EC50 and inactives only a lower limit.

Tests used:
[1] = molecular target: T1, Heat shock factor protein 1 (Mus musculus, UniProt P38532); test: enhancement of HSF1-driven luciferase signal – cell-based, NIH3T3, luminescence, dose retest, confirmation (AID 435004); format: functional;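 also: stress induced by proteasome inhibitor MG132 added 30 min after compound; luciferase reporter driven by HSF1 response element in NIH3T3 cells; actives raise luminescence as potentiators of the MG132 stress response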
T1 sequence (P38532 whole entry): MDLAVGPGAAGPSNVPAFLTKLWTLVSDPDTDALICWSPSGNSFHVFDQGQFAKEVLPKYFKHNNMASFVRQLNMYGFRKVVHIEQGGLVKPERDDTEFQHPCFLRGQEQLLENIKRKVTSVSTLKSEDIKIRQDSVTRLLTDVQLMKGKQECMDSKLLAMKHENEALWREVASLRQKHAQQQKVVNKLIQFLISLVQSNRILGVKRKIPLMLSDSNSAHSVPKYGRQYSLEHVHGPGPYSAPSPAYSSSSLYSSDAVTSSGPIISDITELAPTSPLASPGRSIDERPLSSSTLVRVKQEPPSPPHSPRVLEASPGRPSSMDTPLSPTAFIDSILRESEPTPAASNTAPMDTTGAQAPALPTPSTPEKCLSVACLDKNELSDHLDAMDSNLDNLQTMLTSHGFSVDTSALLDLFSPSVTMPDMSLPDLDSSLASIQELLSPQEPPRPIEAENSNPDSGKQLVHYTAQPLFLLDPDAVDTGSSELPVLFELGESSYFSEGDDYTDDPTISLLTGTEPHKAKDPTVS

[2] = Luminescence Cell-Based Dose Confirmation HTS to Identify Activators of 5'UTR Stem-Loop Driven Alpha-Synuclein mRNA Translation in H4 Neuroglioblastoma Cells. [Related pubchem assays: 1829 (Project Summary), 1814 (Primary HTS)]; format: functional
[3] = Luminescence Cell-Based Dose Response HTS to Identify Activators of Luciferase Translation or Activity in H4 […] Cells. [Related pubchem assays: 1829 (Project Summary), 1814 (Primary HTS)]; format: functional
[4] = NIH3T3 cell viability loss – ATP luminescence, mouse fibroblasts, counter-screen, dose response (AID 2010); format: functional, cell-based;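 also: cells exposed to compound for about 90 hours before reading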
H4 = test: Luminescence Cell-Based Dose Response HTS to Identify Activators of 5'UTR Stem-Loop Driven Prion Protein mRNA Translation in H4 Neuroglioblastoma Cells. [Related pubchem assays: 1829 (Project Summary), 1814 (Primary HTS)]; format: functional; details: Homo sapiens
[5] = molecular target: Small ubiquitin-related modifier 2 (Homo sapiens, UniProt P61956); test: disruption of SUMO2 interaction with SIM peptide – biochemical, fluorescence polarization, uHTS hits, selectivity assay for SUMO1 interaction inhibitor project, dose response (AID 624385); format: functional; details: read-out: IC50_Mean
Chain of Small ubiquitin-related modifier 2 (P61956 whole entry): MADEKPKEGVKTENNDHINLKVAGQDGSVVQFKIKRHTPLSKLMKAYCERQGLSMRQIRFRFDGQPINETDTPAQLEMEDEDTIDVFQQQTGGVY

Streptokinase A = molecular target: T2, Streptokinase A (Streptococcus pyogenes serotype M1, UniProt P10520); test: viability-normalized secreted streptokinase activity reduction – plasminogen activation absorbance, OD405, dose response (AID 1914); format: functional, Streptococcus pyogenes M1 GAS;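 also: secreted streptokinase activity via plasminogen activation per viability signal from cell pellet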
T2 sequence (P10520 whole entry): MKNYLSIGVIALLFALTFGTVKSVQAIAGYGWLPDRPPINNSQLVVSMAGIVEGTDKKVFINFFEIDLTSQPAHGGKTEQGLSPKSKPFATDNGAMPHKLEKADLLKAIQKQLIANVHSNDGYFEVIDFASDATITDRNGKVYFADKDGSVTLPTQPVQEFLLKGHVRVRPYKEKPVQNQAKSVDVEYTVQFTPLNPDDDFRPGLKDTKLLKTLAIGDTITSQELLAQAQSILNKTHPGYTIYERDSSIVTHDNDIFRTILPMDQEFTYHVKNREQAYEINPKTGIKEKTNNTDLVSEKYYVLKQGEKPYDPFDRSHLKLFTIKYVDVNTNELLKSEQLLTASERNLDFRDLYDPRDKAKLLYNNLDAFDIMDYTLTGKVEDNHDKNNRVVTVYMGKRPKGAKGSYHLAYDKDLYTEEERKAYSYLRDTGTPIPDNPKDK

Large T antigen = Large T antigen (Simian virus 40, UniProt P03070); format: functional, Betapolyomavirus macacae;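 also: Confirmatory-stage PubChem screen for compounds that inhibit SV40 T antigen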
Chain of Large T antigen (P03070 whole entry): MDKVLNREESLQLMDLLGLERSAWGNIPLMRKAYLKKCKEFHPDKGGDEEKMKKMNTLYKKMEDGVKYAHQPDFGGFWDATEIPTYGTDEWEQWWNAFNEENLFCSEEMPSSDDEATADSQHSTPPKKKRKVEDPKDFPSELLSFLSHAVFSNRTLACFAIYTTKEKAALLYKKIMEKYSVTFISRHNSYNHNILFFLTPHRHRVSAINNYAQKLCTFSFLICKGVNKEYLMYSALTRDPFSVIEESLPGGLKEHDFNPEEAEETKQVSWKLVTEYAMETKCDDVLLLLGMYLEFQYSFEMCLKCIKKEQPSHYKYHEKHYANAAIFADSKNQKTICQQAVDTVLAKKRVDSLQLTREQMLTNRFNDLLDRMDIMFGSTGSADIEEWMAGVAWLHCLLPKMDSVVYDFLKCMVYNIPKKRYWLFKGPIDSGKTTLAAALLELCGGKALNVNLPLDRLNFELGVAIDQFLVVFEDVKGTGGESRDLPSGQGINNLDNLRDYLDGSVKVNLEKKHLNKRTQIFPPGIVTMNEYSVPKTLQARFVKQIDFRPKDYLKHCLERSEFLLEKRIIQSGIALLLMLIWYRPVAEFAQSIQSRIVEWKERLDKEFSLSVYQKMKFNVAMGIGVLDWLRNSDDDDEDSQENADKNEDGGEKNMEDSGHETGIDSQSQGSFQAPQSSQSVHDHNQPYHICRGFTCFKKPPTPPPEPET

[6] = molecular target: T3, Small ubiquitin-related modifier 1 (Homo sapiens, UniProt P63165); test: SUMO1 protein-protein binding blockers, potency – biochemical, FRET, dose response (AID 624383); format: functional; details: read-out: IC50_Mean
T3 sequence (P63165 whole entry): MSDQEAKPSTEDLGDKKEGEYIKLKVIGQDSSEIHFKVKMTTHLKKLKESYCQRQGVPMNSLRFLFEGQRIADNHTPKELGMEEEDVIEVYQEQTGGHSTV

[7] = system: Streptococcus sp. 'group A'; test: Streptococcus pyogenes SK(-)GAS viability under kanamycin – luminescence, BacTiterGlo, confirmation, counter-screen for streptokinase expression inhibitor project, dose response (AID 1900); format: functional, organism-based; details: Streptococcus sp. 'group A'
Streptococcus = test: GAS UMAA2166 growth inhibition – luminescence, BacTiterGlo, counter-screen for streptokinase expression inhibitor project, dose response (AID 1915); format: functional, organism-based; details: Streptococcus;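 also: potency for reduction of bacterial viability or growth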
[8] = molecular target: T3, Small ubiquitin-related modifier 1; test: SUMO1 protein interaction blockers, potency – biochemical, fluorescence polarization, uHTS hits, dose response (AID 624382); format: functional; details: read-out: IC50_Mean
[9] = molecular target: T4, Sentrin-specific protease 8 (Homo sapiens, UniProt Q96LD8); test: inhibition of human SENP8 cleavage activity – biochemical, luminescence, SAR follow-up (AID 504501); format: functional
T4 sequence (Q96LD8 whole entry): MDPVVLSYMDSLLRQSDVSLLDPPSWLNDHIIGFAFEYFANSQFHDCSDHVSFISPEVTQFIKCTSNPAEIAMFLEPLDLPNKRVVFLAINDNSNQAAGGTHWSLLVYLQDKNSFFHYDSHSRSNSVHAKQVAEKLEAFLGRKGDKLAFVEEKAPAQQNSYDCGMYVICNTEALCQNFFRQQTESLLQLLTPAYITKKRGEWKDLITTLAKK

[10] = molecular target: T4, Sentrin-specific protease 8; format: functional

Compound: c1ccc2c(Nc3nnc(-c4ccncc4)s3)cccc2c1
- EC50 [1]: 42.1 µM (active)
- EC50 [2]: 0.196 µM (active)
- EC50 [3]: > 120 µM (not active)
- EC50 [4]: > 60 µM (not active)
- EC50 (H4): 13.8 µM (active)

Compound: N#Cc1c(O)nc(SCC(=O)N2c3ccccc3Sc3ccccc32)nc1-c1ccccc1
- IC50 [5]: 10.9 µM (active)
- EC50 (Streptokinase A): > 150 µM (not active)
- IC50 (Large T antigen): 52.7 µM (active)
- IC50 [6]: 19.8 µM (active)
- EC50 [7]: 5.6 µM (active)
- EC50 (Streptococcus): 13.9 µM (active)
- IC50 [8]: 21 µM (inactive)

Compound: COc1cc(C(=O)c2nccc3cc(OC)c(OC)cc23)c([N+](=O)[O-])cc1OC
- IC50 [9]: > 99 µM (inactive)
- IC50 [10]: 0.535 µM (active)
